Test results as given in ChEMBL document CHEMBL1201862, “PubChem BioAssay data set” (2004).
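Exposure lasted 48 hours, with cells grown in 96-well plates and compounds tested at five concentrations. Here, GI50 denotes the concentration required for 50% inhibition of growth.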 Calls of active or inactive are those of the source. Cut-off read from the data, not from the text of the source: active = GI50 up to about 1.1 µM and inactive = higher.

Columns and labels:
Test in all cases: NCI-60 cell line screen, 48 h
RPMI-8226 = tested on: RPMI-8226
U-251 = tested on: U-251
NCI-H460 = tested on: NCI-H460
SK-OV-3 = tested on: SK-OV-3
TK-10 = tested on: TK-10
MDA-MB-231 = tested on: MDA-MB-231
CAKI-1 = tested on: CAKI-1
SF-268 = tested on: SF-268
HL-60 = tested on: HL-60
OVCAR-3 = tested on: OVCAR-3
HCT-116 = tested on: HCT-116
NCI/ADR-RES = tested on: NCI/ADR-RES
CCRF-CEM = tested on: CCRF-CEM
Hs-578T = tested on: Hs-578T
SNB-75 = tested on: SNB-75
T47D = tested on: T47D
LOX IMVI = tested on: LOX IMVI
HOP-92 = tested on: HOP-92

## COc1cc(CNC(=O)CCCCCCCCCCSSCCCCCCCCCCC(=O)NCc2ccc(O)c(OC)c2)ccc1O
RPMI-8226
  GI50: > 10 µM (inactive)
U-251
  GI50: > 10 µM (inactive)
NCI-H460
  GI50: > 10 µM (inactive)
SK-OV-3
  GI50: > 10 µM (inactive)
TK-10
  GI50: > 10 µM (inactive)
MDA-MB-231
  GI50: > 10 µM (inactive)
CAKI-1
  GI50: > 10 µM (inactive)
SF-268
  GI50: > 10 µM (inactive)
HL-60
  GI50: > 10 µM (inactive)
OVCAR-3
  GI50: > 10 µM (inactive)
HCT-116
  GI50: > 10 µM (inactive)
NCI/ADR-RES
  GI50: > 10 µM (inactive)
CCRF-CEM
  GI50: > 10 µM (inactive)
Hs-578T
  GI50: > 10 µM (inactive)
SNB-75
  GI50: > 10 µM (inactive)
T47D
  GI50: > 10 µM (inactive)
LOX IMVI
  GI50: > 10 µM (inactive)
HOP-92
  GI50: > 10 µM (inactive)

## Nc1nc(S)c2c(N)n[nH]c2c1C(=O)Nc1ccccc1
RPMI-8226
  GI50: > 100 µM (inactive)
U-251
  GI50: > 100 µM (inactive)
NCI-H460
  GI50: > 100 µM (inactive)
SK-OV-3
  GI50: > 100 µM (inactive)
TK-10
  GI50: > 100 µM (inactive)
MDA-MB-231
  GI50: > 100 µM (inactive)
CAKI-1
  GI50: > 100 µM (inactive)
SF-268
  GI50: > 100 µM (inactive)
HL-60
  GI50: > 100 µM (inactive)
OVCAR-3
  GI50: > 100 µM (inactive)
HCT-116
  GI50: > 100 µM (inactive)
NCI/ADR-RES
  GI50: > 100 µM (inactive)
Hs-578T
  GI50: > 100 µM (inactive)
SNB-75
  GI50: > 100 µM (inactive)
T47D
  GI50: > 100 µM (inactive)
LOX IMVI
  GI50: > 100 µM (inactive)
HOP-92
  GI50: > 100 µM (inactive)

## CC1=C2C(=O)c3ccccc3C(=O)[C@H]2[C@H]2CCO[C@H]2O1
RPMI-8226
  GI50: 24.4 µM (inactive)
U-251
  GI50: 24.2 µM (inactive)
NCI-H460
  GI50: 21 µM (inactive)
SK-OV-3
  GI50: 50.4 µM (inactive)
TK-10
  GI50: 28.5 µM (inactive)
MDA-MB-231
  GI50: 24.2 µM (inactive)
CAKI-1
  GI50: 22.2 µM (inactive)
SF-268
  GI50: 17.7 µM (inactive)
HL-60
  GI50: 27.7 µM (inactive)
OVCAR-3
  GI50: 19.1 µM (inactive)
HCT-116
  GI50: 23.8 µM (inactive)
NCI/ADR-RES
  GI50: 27 µM (inactive)
CCRF-CEM
  GI50: 25.4 µM (inactive)
Hs-578T
  GI50: 41.7 µM (inactive)
SNB-75
  GI50: 19.8 µM (inactive)
T47D
  GI50: 34.7 µM (inactive)
LOX IMVI
  GI50: 22.3 µM (inactive)
HOP-92
  GI50: 20 µM (inactive)

## Cc1csc2[n+]1C(=O)/C(=C\c1ccc([N+](=O)[O-])cc1)S2
RPMI-8226
  GI50: 16.6 µM (inactive)
U-251
  GI50: 18.7 µM (inactive)
NCI-H460
  GI50: 22.9 µM (inactive)
SK-OV-3
  GI50: 31.5 µM (inactive)
TK-10
  GI50: 25.2 µM (inactive)
MDA-MB-231
  GI50: 27.3 µM (inactive)
CAKI-1
  GI50: 25.2 µM (inactive)
SF-268
  GI50: 20.3 µM (inactive)
HL-60
  GI50: 26.2 µM (inactive)
OVCAR-3
  GI50: 15.3 µM (inactive)
HCT-116
  GI50: 17.8 µM (inactive)
NCI/ADR-RES
  GI50: 25.4 µM (inactive)
CCRF-CEM
  GI50: 43.1 µM (inactive)
Hs-578T
  GI50: 25.6 µM (inactive)
SNB-75
  GI50: 20.3 µM (inactive)
T47D
  GI50: 21.2 µM (inactive)
LOX IMVI
  GI50: 22.5 µM (inactive)
HOP-92
  GI50: 19.4 µM (inactive)

## COc1cc2oc(=O)cc(C)c2cc1O
RPMI-8226
  GI50: > 100 µM (inactive)
U-251
  GI50: > 100 µM (inactive)
NCI-H460
  GI50: > 100 µM (inactive)
TK-10
  GI50: > 100 µM (inactive)
MDA-MB-231
  GI50: > 100 µM (inactive)
CAKI-1
  GI50: > 100 µM (inactive)
SF-268
  GI50: > 100 µM (inactive)
HL-60
  GI50: > 100 µM (inactive)
OVCAR-3
  GI50: > 100 µM (inactive)
HCT-116
  GI50: > 100 µM (inactive)
NCI/ADR-RES
  GI50: > 100 µM (inactive)
CCRF-CEM
  GI50: > 100 µM (inactive)
Hs-578T
  GI50: > 100 µM (inactive)
SNB-75
  GI50: > 100 µM (inactive)
T47D
  GI50: 41 µM (inactive)
LOX IMVI
  GI50: > 100 µM (inactive)
HOP-92
  GI50: 46.3 µM (inactive)

## N#Cc1c(-c2ccccc2)cc(Nc2ccc(F)cc2)n2c1nc1ccccc12
RPMI-8226
  GI50: 3.56 µM (inactive)
U-251
  GI50: 2.06 µM (inactive)
NCI-H460
  GI50: 2.36 µM (inactive)
SK-OV-3
  GI50: 2.43 µM (inactive)
TK-10
  GI50: 3.55 µM (inactive)
MDA-MB-231
  GI50: 3.83 µM (inactive)
CAKI-1
  GI50: 3.2 µM (inactive)
SF-268
  GI50: 3.72 µM (inactive)
HL-60
  GI50: > 100 µM (inactive)
OVCAR-3
  GI50: 3.13 µM (inactive)
HCT-116
  GI50: 1.83 µM (inactive)
NCI/ADR-RES
  GI50: 2.26 µM (inactive)
Hs-578T
  GI50: < 0.01 µM (active)
SNB-75
  GI50: 1.72 µM (inactive)
T47D
  GI50: 1.88 µM (inactive)
LOX IMVI
  GI50: 3.33 µM (inactive)
HOP-92
  GI50: 1.01 µM (active)

## O=Cc1[nH]c(=O)[nH]c(=O)c1C(=O)O
RPMI-8226
  GI50: > 100 µM (inactive)
U-251
  GI50: > 100 µM (inactive)
NCI-H460
  GI50: > 100 µM (inactive)
SK-OV-3
  GI50: > 100 µM (inactive)
TK-10
  GI50: > 100 µM (inactive)
MDA-MB-231
  GI50: > 100 µM (inactive)
CAKI-1
  GI50: > 100 µM (inactive)
SF-268
  GI50: > 100 µM (inactive)
HL-60
  GI50: > 100 µM (inactive)
OVCAR-3
  GI50: > 100 µM (inactive)
HCT-116
  GI50: > 100 µM (inactive)
NCI/ADR-RES
  GI50: > 100 µM (inactive)
CCRF-CEM
  GI50: > 100 µM (inactive)
Hs-578T
  GI50: > 100 µM (inactive)
SNB-75
  GI50: 43.8 µM (inactive)
T47D
  GI50: > 100 µM (inactive)
LOX IMVI
  GI50: > 100 µM (inactive)
HOP-92
  GI50: > 100 µM (inactive)

## CC(C)Cc1cc2c(cc1O)CCC1C2CC[C@@]2(C)C1CC[C@@H]2O (stereo partly specified)
RPMI-8226
  GI50: 3.74 µM (inactive)
U-251
  GI50: 10.7 µM (inactive)
NCI-H460
  GI50: 10.5 µM (inactive)
SK-OV-3
  GI50: 8.17 µM (inactive)
TK-10
  GI50: 9.48 µM (inactive)
MDA-MB-231
  GI50: 7.59 µM (inactive)
CAKI-1
  GI50: 16 µM (inactive)
SF-268
  GI50: 10.8 µM (inactive)
HL-60
  GI50: 1.94 µM (inactive)
OVCAR-3
  GI50: 5.57 µM (inactive)
HCT-116
  GI50: 6.05 µM (inactive)
NCI/ADR-RES
  GI50: 6.14 µM (inactive)
CCRF-CEM
  GI50: 7.91 µM (inactive)
Hs-578T
  GI50: 6.19 µM (inactive)
SNB-75
  GI50: 5.68 µM (inactive)
T47D
  GI50: 5.04 µM (inactive)
LOX IMVI
  GI50: 6.22 µM (inactive)
HOP-92
  GI50: 10.2 µM (inactive)
